Measured values published in patent US6121512A, “Cytochrome P-450 constructs and method of producing herbicide-resistant transgenic plants” (North Carolina State University, priority 1997, dated 2000).

Experiments:
[1] = test system: excised leaves of transgenic tobacco plant 25/2 progeny (CYP71A10-transformed); experiment: In vivo herbicide metabolism assay, excised leaves of CYP71A10-transformed tobacco; parameters: species or system Nicotiana tabacum cv SR1; conditions: after 14 hours; 1.2 nmol herbicide; standard error in parentheses; four 25/2 plants
Method: Seeds from primary transgenic tobacco plants transformed with CYP71A10 and control plants transformed with the pBI121 vector were grown in Petri dishes containing MS salts and 100 μg/ml kanamycin. At five weeks post-seeding, kanamycin-resistant plantlets were transplanted into pots containing soil and grown an additional two weeks. Single leaves of approximately 10 cm^2 in size were excised and their petioles inserted into 100 μl of H2 O containing radiolabeled herbicide. The leaves were placed in a growth chamber maintaining a temperature of 27° C. and incubated until the entire volume of the herbicide solution was drawn up by the transpirational stream of the leaves (about 3 hrs). The leaves were subsequently transferred into an Eppendorf tube containing distilled water and further incubated for a total of 14 hours.
[^14 C]-labeled herbicide was extracted from the leaves by grinding for 5 minutes in 250 μl methanol with a plastic pellet pestle driven by an electric drill. After centrifugation for 3 minutes at 14,000 g, 75μl of the supernatant was spotted on a Whatman K6F silica plate and developed in a solvent system containing chloroforn/ethanol/acetic acid 135:10:15 (v/v/v). The separated herbicide derivatives were visualized using an imaging scanner. Substrate conversion was quantified based on the amount of herbicide absorbed, and the ratios of the parent compound and the produced metabolites determined from the TLC profiles.

[2] = target: T1, CYP73A1 (trans-cinnamic acid hydroxylase) (Helianthus tuberosus, UniProt Q04468); conditions: CYP73A1 expressed in yeast, chlortoluron ring-methyl hydroxylation; cited from earlier work
T1 construct: host or cells: yeast
T1 sequence (Q04468 1-505): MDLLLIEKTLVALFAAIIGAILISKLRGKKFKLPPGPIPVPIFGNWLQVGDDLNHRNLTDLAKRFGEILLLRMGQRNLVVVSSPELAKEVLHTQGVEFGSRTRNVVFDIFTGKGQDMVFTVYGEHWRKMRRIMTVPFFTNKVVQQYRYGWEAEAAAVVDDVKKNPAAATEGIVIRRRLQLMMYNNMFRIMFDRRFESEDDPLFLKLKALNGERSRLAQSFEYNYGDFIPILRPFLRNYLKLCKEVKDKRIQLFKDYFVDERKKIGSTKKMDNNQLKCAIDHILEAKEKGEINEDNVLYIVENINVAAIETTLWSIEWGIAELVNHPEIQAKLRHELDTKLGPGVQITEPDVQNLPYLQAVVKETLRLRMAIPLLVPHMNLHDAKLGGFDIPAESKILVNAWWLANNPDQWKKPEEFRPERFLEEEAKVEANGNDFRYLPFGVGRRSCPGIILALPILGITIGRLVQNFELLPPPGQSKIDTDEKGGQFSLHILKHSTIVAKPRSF

[3] = test system: CYP71A10-transformed tobacco; experiment: Herbicide tolerance, seeds germinated on herbicide medium, CYP71A10-transformed tobacco; assay type: in vivo, Nicotiana tabacum cv SR1; conditions: 1.0 μM chlortoluron in medium
Method: T1 generation seeds from CYP71A10-transformed tobacco and pBI121-transformed control plants were placed onto Petri dishes containing MS salts and linuron (using its commercial formulation LOROX 50 DF) at active ingredient concentrations ranging from 0.25 to 3.0 μM. Chlortoluron was added at 0, 1.0, 5.0 and 10.0 μM concentrations using a 99.5% pure analytical standard. The Petri dishes were incubated in a growth chamber maintaining a constant temperature of 27° C. and a 16/8 hour light/dark cycle. The phytotoxic effects of the treatments were determined visually by comparison to control plants and plants grown in the absence of the herbicide. All treatments were repeated at least twice.

SMILES: Cc1ccc(NC(=O)N(C)C)cc1Cl [Chlortoluron, chlortoluron]
- % of herbicide metabolized, CYP71A10-transformed [1]: 85 (8.1) %
- turnover number of the heterologously expressed enzyme [2]: 0.014 /min
- growth of the 25/2 plants [3]: modestly inhibited
